Here are results for 1 compound from article PMC11096368, “Transcriptomic signature, bioactivity and safety of a non-hepatotoxic analgesic generating AM404 in the midbrain PAG region” (Scientific Reports, 2024).

For one data set, the system named is beagle dogs. Briefly: 7-day repeat-dose oral toxicity and toxicokinetic study, Phase II (non-GLP). It is filed as in vivo. The method, then:
(§1) In Phase II of this study, 0, 30, 100, or 300 mg/kg/d of SRP-001 was administered once daily for seven consecutive days to 1 Beagle dog/sex/dose (Calvert Labs/Altasciences, Scott Township, PA USA). Mortality/morbidity was observed twice daily and once prior to scheduled sacrifice. Clinical observations were evaluated prior to each dose administration and at approximately 1–3 h post-dose and once prior to scheduled sacrifice on day 8. Body weights were recorded on days 1 and 7, and a fasted body weight was recorded prior to scheduled sacrifice on day 8. Food consumption was recorded daily. Blood for evaluation of hematology, coagulation, and clinical chemistry parameters and urine for urinalysis was collected from all animals prior to treatment initiation and from all Phase II animals prior to scheduled sacrifice on day 8. Blood for toxicokinetic evaluation was collected at selected time points on days 1 and 7. Selected tissues were harvested and weighed at necropsy. No microscopic evaluations were performed. […] The clinical observations corroborated with findings of red discoloration in the duodenum of the control group female, the jejunum of the low-dose male, and the colon of both high-dose dogs.
(§2) The reason for this is unclear; however, it may be due to a low sample size (n = 2 per dose group). Half-lives ranged from approximately 1 to 3.5 h and increased with dose and time. […] Based on these observations, SRP-001 was considered to be tolerated at 300 mg/kg when administered once daily for 7 consecutive days. Our toxicokinetic analysis indicates elevated systemic exposures to SRP-001 on Day 1 relative to Day 7. […] A plausible mechanistic explanation for this observed decrease is the induction of metabolic enzymes, likely involving UGT and potentially CYP3A enzymes, as elaborated above and substantiated by previous research. […] The NOAEL exposure parameters align well with the highest SAD dose in the Phase 1 trial, reinforcing the drug's safety profile. The observed PK decrease is not attributed to emesis but likely to enzymatic induction and will be the subject for future investigation.

Assay in data set [1]: as above
The data set is classed as in vivo. To be noted: both sexes, Beagle, dog, in vivo, 300 mg/kg/day, 30, 100, 300 mg/kg/d, days 1 and 7. The method, then: as §1, §2

Regarding `CCN(CC)C(=O)c1ccccc1S(=O)(=O)NCC(=O)Nc1ccc(O)cc1` [SRP-001, N,N-diethyl-2-[[2-(4-hydroxyanilino)-2-oxo-ethyl]sulfamoyl]benzamide], in the data set on beagle dogs (dog, in vivo), the “AUC and Cmax levels versus dose” value is given as “increased in a dose-dependent manner”; the “Body weight, food consumption, hematology, clinical chemistry, coagulation parameters” value is recorded as “No SRP-001-related differences”; the Clinical signs result is “loose or soft feces and emesis”. The “Dose considered to be tolerated” value with beagle dogs (once daily for 7 consecutive days) came out at 300 mg/kg. The Tmax in data set [1] was in the range of 0.5 to 1.5 h. In addition, the half-life in data set [1] (read-out: Half-lives) was in the range of 1 to 3.5 h.

By Tmax is commonly meant the time from dosing to the highest level.
